The source made the active and inactive calls. The calls are words filed in the database; no cut-off is given here.
How the values were obtained:
Protein S100-B = target: T1, Protein S100-B (Homo sapiens, UniProt P04271); assay: Inhibition of human S100B/human TAMRA-p53(367-388) interaction by fluorescence polarization assay
T1 sequence (P04271 whole entry): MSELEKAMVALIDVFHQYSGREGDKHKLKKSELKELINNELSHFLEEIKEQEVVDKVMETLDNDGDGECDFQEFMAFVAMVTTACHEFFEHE

WM-115 = assay: Cytotoxicity against human WM115 cells assessed as growth inhibition measured after 72 hrs by crystal violet assay; assay type: functional, cell-based; details: WM-115, 72 h
[1] = target: T2, Protein S100-B (Homo sapiens) (UniProt P04271); assay: Inhibition of human S100B/humanTAMRA-p53(367-388) interaction assessed as inhibition rate at 50 uM by fluorescence polarization assay
T2 sequence (whole entry): T1 sequence (P04271 whole entry)

[2] = target: T2, Protein S100-B (Homo sapiens); assay: Inhibition of human S100B/humanTAMRA-p53(367-388) interaction by In situ proximity ligation assay
[3] = target: T2, Protein S100-B (Homo sapiens); assay: Inhibition of human S100B/humanTAMRA-p53(367-388) interaction assessed as inhibition rate at 93 uM by fluorescence polarization assay

Row | Structure (SMILES) | IC50 (Protein S100-B) | Ki (Protein S100-B) | IC50 (WM-115) | inhibition [1] | inhibition [2] | inhibition [3]
1 | Nc1cc(N2CCCCC2)ccc1N1CCCCC1 | 31.5 µM | 25.1 µM | 36.4 µM | – | – | –
2 | CCN(CC)c1ccc(N)c(C)c1 | 8.4 µM | 5 µM | 8.5 µM | – | – | –
3 | Nc1ccc(N2CCNCC2)cc1 | – | – | – | < 50% | – | –
4 | Nc1ccc(N2CCCCC2)cc1N1CCCCC1 | 2 µM | < 1 µM | 4.9 µM | – | Active | –
5 | N=C(N)c1ccc(OCCCCCOc2ccc(C(=N)N)cc2)cc1 [PENTAMIDINE] | > 100 µM | – | 4.8 µM | – | – | 14.2%
6 | CN1CCN(c2ccc(N)c(N3CCN(C)CC3)c2)CC1 | – | – | – | < 50% | – | –
7 | COc1ccc(/C=N/c2ccc(O)cc2)cc1 | 36.3 µM | – | – | – | – | –

Reference: ChEMBL document CHEMBL2331198, “Identification of small-molecule inhibitors of the human S100B-p53 interaction and evaluation of their activity in human melanoma cells” (Bioorg Med Chem, 2013)
